The source of these data is the Kinase Knowledgebase extract (Sharma et al. 2016).

The target in assay [1] is EGFR (human) (UniProt P00533).
Assay [2] concerns the target EGFR (human) (UniProt P00533). The following applies: a431.
Assay [3] addresses EGFR (human) (UniProt P00533). The following applies: a431. The source holds these as a separate data set.
Assay [4] concerns the target EGFR (human) (UniProt P00533). The settings on record: a431. The source holds these as a separate data set.
Assay [5] concerns the target PIK3CA (human) (UniProt P42336). Briefly: Inhibition of PIK3CA Kinase Activity.
Assay [6] has the same target. The assay can be described thus: Assesment of Cell Proliferation of IGROV-1 Cells Using SRB Assay.
Assay [7] has as its target EGFR (human) (UniProt P00533). The following applies: kb.
The target in assay [8] is MAPK14 (human) (UniProt Q16539). Briefly: Cellular Inhibition of MAPK14 Kinase in A549 Cells.
Sequence of MAPK14 (human) (Q16539 whole entry, looked up): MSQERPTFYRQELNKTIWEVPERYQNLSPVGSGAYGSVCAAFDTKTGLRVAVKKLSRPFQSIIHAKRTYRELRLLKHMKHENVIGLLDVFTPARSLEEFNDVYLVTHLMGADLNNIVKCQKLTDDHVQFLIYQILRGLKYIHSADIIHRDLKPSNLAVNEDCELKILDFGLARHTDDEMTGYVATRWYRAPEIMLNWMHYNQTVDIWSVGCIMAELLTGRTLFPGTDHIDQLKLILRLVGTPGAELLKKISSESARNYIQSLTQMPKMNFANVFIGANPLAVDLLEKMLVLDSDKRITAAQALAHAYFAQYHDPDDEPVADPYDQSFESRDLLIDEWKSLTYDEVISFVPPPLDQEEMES
Assay [9] addresses EGFR (human) (UniProt P00533). The source holds these as a separate data set.
The target in assay [10] is PIK3CB;PIK3CG;PIK3CD;PIK3CA (human) (UniProt P48736). Briefly: Assessment of PIK3CA/PIK3CB/PIK3CD/PIK3CG Kinase Activity.
In assay [11] the target is EGFR (human) (UniProt P00533). The settings on record: a431. This is another data set of the same source.
Assay [12] concerns the target EGFR (human) (UniProt P00533). The settings on record: a431. The source holds these as a separate data set.
Another assay addresses EGFR (UniProt P00533).
Another assay has as its target PIK3CB (Human) (UniProt P42338). The assay can be described thus: Inhibition of PIK3CB Kinase (ATP Loss) Activity.
The target of assay [13] is EGFR (human) (UniProt P00533). This is another data set of the same source.
The target in assay [14] is EGFR (human) (UniProt P00533). The following applies: a431. This is another data set of the same source.
In assay [15] the target is MAPK14 (human) (UniProt Q16539). The assay can be described thus: Cell-Based Assay. The following applies: a375.
Assay [16] concerns the target PIK3CA (human) (UniProt P42336). The assay can be described thus: Assessment of PIK3CA Kinase Activity in NZB5 Cells.
For assay [17] the target is unchanged. Briefly: Assessment of PIK3CA Kinase Activity in NZOV9 Cells.
The target of assay [18] is EGFR (human) (UniProt P00533). The settings on record: a431. The source holds these as a separate data set.
Assay [19] addresses EGFR (human) (UniProt P00533). This is another data set of the same source.
The target of assay [20] is EGFR (human) (UniProt P00533). This is another data set of the same source.

Sequence of PIK3CA (human) (P42336 whole entry, looked up): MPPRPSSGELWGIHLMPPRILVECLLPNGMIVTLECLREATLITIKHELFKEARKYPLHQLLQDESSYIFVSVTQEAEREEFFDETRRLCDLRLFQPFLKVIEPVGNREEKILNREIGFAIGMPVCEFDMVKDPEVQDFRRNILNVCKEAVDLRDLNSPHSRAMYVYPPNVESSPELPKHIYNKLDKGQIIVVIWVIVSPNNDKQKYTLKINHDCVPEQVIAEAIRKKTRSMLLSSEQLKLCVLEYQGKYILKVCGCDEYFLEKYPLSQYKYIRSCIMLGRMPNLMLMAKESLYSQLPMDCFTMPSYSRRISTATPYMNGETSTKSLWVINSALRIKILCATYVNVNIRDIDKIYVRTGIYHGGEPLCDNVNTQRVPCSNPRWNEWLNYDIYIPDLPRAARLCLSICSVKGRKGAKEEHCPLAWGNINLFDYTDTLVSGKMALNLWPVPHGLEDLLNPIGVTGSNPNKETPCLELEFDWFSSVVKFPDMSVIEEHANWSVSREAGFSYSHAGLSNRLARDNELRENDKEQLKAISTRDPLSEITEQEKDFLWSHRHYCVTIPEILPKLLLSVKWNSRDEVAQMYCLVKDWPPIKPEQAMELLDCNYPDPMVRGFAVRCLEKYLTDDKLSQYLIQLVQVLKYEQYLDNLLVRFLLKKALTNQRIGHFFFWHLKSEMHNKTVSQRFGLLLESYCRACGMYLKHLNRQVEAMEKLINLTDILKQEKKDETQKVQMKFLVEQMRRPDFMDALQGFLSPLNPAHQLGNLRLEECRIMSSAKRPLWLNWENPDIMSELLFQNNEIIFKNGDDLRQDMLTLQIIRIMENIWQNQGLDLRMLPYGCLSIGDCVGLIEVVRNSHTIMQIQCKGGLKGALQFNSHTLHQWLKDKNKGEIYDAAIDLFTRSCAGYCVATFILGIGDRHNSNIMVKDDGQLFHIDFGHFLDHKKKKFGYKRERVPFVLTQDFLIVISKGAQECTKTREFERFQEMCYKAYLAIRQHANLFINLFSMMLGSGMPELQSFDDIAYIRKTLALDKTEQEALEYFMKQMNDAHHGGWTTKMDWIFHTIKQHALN
Sequence of EGFR (human) (P00533 whole entry, looked up): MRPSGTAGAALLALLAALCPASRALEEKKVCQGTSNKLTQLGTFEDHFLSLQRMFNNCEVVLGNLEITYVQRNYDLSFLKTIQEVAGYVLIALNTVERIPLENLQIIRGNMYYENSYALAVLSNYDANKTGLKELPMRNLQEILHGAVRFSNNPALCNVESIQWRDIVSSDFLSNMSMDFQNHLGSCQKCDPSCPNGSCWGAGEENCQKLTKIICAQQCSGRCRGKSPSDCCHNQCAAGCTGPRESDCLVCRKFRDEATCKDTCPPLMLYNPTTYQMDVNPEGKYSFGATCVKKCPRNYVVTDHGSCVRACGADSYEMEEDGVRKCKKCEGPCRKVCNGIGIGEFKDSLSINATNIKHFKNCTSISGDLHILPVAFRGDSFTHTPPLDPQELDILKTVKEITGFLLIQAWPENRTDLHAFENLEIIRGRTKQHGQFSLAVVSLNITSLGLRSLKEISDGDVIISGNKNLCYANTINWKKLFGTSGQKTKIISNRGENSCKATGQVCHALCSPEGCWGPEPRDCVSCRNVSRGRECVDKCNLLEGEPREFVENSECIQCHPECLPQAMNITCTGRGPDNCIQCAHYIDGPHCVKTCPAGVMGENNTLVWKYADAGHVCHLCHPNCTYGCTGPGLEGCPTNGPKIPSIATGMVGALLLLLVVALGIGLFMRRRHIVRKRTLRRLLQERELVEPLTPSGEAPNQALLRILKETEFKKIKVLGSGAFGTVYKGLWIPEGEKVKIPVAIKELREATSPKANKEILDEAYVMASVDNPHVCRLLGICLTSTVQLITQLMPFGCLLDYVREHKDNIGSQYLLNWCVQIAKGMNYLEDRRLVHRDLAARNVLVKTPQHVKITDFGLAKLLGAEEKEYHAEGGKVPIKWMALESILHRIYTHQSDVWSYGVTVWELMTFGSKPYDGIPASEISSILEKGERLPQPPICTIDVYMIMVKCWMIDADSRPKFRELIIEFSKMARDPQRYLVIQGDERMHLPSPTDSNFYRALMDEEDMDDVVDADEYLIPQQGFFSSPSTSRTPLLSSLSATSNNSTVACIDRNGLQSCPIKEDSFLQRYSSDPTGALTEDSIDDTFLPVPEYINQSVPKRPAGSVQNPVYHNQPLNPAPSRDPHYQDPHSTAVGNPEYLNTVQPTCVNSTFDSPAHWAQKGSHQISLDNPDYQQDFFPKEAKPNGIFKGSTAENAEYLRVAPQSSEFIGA
Sequence of EGFR (P00533 whole entry, looked up): as above
Sequence of PIK3CB (Human) (P42338 whole entry, looked up): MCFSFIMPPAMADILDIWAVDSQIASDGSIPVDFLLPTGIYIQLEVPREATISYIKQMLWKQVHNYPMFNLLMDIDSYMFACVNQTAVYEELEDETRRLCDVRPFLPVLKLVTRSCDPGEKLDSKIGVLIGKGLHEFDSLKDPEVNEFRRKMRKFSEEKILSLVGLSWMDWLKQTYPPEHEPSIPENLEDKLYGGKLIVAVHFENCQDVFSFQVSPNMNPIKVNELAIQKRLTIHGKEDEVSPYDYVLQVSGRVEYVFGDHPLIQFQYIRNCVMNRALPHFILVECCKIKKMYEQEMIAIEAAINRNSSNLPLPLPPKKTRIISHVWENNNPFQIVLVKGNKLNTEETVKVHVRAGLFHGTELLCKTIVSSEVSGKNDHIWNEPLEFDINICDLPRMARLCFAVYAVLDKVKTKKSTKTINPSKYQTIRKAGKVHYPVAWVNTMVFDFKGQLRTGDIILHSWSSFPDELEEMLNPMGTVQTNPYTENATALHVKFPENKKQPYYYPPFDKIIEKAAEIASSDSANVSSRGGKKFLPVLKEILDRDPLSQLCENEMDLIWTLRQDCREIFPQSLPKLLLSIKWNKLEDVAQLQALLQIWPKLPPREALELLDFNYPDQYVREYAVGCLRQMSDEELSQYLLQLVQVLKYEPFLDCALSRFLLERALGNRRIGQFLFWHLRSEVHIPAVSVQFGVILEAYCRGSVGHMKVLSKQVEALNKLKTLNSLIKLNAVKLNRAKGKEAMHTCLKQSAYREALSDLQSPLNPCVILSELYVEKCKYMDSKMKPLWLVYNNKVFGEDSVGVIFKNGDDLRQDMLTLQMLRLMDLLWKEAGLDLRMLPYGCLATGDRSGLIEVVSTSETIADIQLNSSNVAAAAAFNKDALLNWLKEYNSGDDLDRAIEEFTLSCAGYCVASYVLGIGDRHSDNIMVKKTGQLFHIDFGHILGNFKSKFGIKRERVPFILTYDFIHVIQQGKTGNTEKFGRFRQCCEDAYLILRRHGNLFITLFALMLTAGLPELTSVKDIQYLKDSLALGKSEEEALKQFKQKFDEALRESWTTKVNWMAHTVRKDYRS

For `C#Cc1cccc(Nc2ncnc3cc(OC)c(OCCCCC(=O)O)cc23)c1`, at EGFR (human) [1], the IC50 (in general, the concentration at which inhibition is half-maximal) was ≤ 100 nM.

For `CCOc1cc2ncc(C#N)c(Nc3ccc(OCc4ccccn4)c(Cl)c3)c2cc1NC(=O)/C=C/[C@@H]1CCCN1`, the IC50 on EGFR (human) [2] stood at 3 nM. In turn, `Nc1nc(Nc2ccc(Cl)cc2Br)c2cc(Cc3ccc(Cl)cc3Cl)[nH]c2n1` registered a half-inhibitory concentration (IC50) against EGFR (human) [3] of 16200 nM. For `Cn1c(NCc2cccc(C(F)(F)F)c2)cc(=O)n(C)c1=O`, the 50% inhibitory concentration (IC50) at EGFR (human) [4] was > 50000 nM. As to `CCOc1cc2ncc(C#N)c(Nc3ccc(OCc4ccccn4)c(Cl)c3)c2cc1NC(=O)/C=C/[C@@H]1C[C@@H](O)CN1C`, the concentration for half-maximal inhibition (IC50) against EGFR (human) [2] amounted to 36 nM. `CS(=O)(=O)Nc1cccc(-c2cc(N3CCOCC3)nc(OCc3ccccn3)n2)c1`: on PIK3CA (human) [5], the half-maximal inhibitory concentration (IC50) amounted to 6200 nM. In the assay with PIK3CA (human) [6], the concentration for 50% growth inhibition (GI50) – broadly, the concentration at which growth is held to half of that of the control – came to 13500 nM.

With `CS(=O)(=O)Nc1cccc(-c2cc(OCc3ccccn3)nc(N3CCOCC3)n2)c1`, on PIK3CA (human) [5], the IC50 was > 10000 nM. Moreover, the GI50 with PIK3CA (human) [6] is 16000 nM.

Turning to `CNC(=O)[C@@H]1C[C@@H](Oc2cc3c(Nc4cccc(Cl)c4F)ncnc3cc2OC)CCN1C`, the IC50 against EGFR (human) [7] was found to be 61 nM. For `COC(=O)NC[C@H](C)Nc1nccc(-c2cn(C(C)C)nc2-c2cc(Cl)cc(NS(C)(=O)=O)c2F)n1`, the IC50 against MAPK14 (human) [8] amounted to 690 nM.

For the compound `C#CCCCN1CCN(Cc2c(C)ncnc2Nc2ccc(OCc3cccc(F)c3)c(Cl)c2)CC1`, the concentration for half-maximal inhibition (IC50) against EGFR (human) [9] was determined as 9 nM.

In assay [10], `Oc1cccc(-c2c(F)cnc3[nH]c4cnc(-c5cccnc5)cc4c23)c1` gave an IC50 of 100 to 1000 nM.

On to `Cc1ccccc1Cc1cc2c(Nc3ccc(Cl)cc3F)nc(N)nc2[nH]1`, for which the IC50 against EGFR (human) [11] and at EGFR (human) [12] was > 200000 nM in each case. On to `O=[N+]([O-])c1ccc2ncnc(Nc3cccc(Br)c3)c2c1`, for which the IC50 against EGFR is 900 nM.

Regarding `CN(C)c1cc(-c2ccc3ncccc3c2)cnc1Cl`, the half-maximal inhibitory concentration (IC50) against PIK3CB (Human) was 40000 nM. With `COc1cc2ncnc(Nc3ccc4occc4c3)c2cc1OCCCCCCC(=O)NO`, the IC50 on EGFR (human) [13] was ≤ 100 nM. The compound `C=C=CCCCOc1cc2c(Nc3ccc(F)c(Cl)c3)ncnc2cc1OC` returned a concentration for 50% growth inhibition (GI50) with EGFR (human) [14] of 268 nM. On to `O=C1Nc2ccc(I)cc2/C1=C/c1cc(Br)c(O)c(Br)c1`, for which the IC50 against MAPK14 (human) [15] is > 10000 nM. With `Cc1ccccc1Cc1cc2c(Nc3ccc(Cl)cc3)nc(N)nc2[nH]1`, the concentration for half-maximal inhibition (IC50) at EGFR (human) [11] came out at 240 nM; at EGFR (human) [12], 5600 nM. Regarding `CC(=NN(C)S(=O)(=O)c1cc([N+](=O)[O-])ccc1C)c1cnn2ccc(Br)cc12`, the IC50 on PIK3CA (human) [16] and against PIK3CA (human) [17] was > 20000 nM each time. With `C=C(CN1CCOCC1)C(=O)Nc1ccc2ncnc(Nc3cccc(Br)c3)c2c1`, at EGFR (human) [18], the IC50 worked out at 128 nM.

On to `C=C=CCCCCCOc1cc2c(Nc3ccc(F)c(Cl)c3)ncnc2cc1OC`, for which the GI50 with EGFR (human) [14] amounted to 586 nM. The 50% inhibitory concentration (IC50) at EGFR (human) [19] is 4.45 nM. As for `COc1cc2ncnc(Nc3cccc(Cl)c3F)c2cc1O[C@H]1CCN(C)[C@H](C(N)=O)C1`, the half-inhibitory concentration (IC50) against EGFR (human) [7] worked out at 56 nM. As to `CN(C)CCOc1ccc(-c2nc(-c3ccc4c(c3)CC/C4=N\O)c(-c3ccncc3)[nH]2)cc1`, the IC50 on MAPK14 (human) [15] was > 10000 nM.

As for `COC(=O)N[C@@H](C)CNc1nccc(-c2cn(C(C)C)nc2-c2cc(Cl)cc(NS(C)(=O)=O)c2F)n1`, on MAPK14 (human) [8], the IC50 was 2200 nM.

`FC(F)(F)c1cccc(Nc2ncnc3ccccc23)c1`: the IC50 on EGFR was determined as 577 nM. Compound `FC(F)(F)c1cccc(Nc2ncnc3[nH]c(Cc4ccc(Cl)cc4Cl)cc23)c1` yielded an IC50 against EGFR (human) [3] of 198000 nM. On to `Cc1cc2c(F)c(Nc3ncnc4cc(OCCCN5CCCC5)c(OCCCCCC(=O)NO)cc34)ccc2[nH]1`, for which, on EGFR (human) [13], the IC50 is ≤ 100 nM. On to `CCCS(=O)(=O)Nc1ccc(F)c(C(=O)c2c[nH]c3ncc(Cl)cc23)c1F`, for which the IC50 against MAPK14 (human) [15] is > 10000 nM. In turn, `O=C(CO)N1CCC(c2[nH]nc(-c3ccc(Cl)cc3)c2-c2ccncn2)CC1` gave an IC50 against EGFR (human) [20] of 101 nM.
